Measurements taken from patent US20240300914A1, “KC2-Type Lipids” (NanoVation Therapeutics Inc., priority 2021, published 2024).
Converted amounts (≈) assume the structure as drawn.

What was measured:
FVII = details: mice, siRNA formulations; Jayaraman et al. 2012; cited from earlier work
[1] = system: 22Rv1 cells modified to stably express luciferase; experiment: Luciferase knockdown by siRNA-LNPs in 22Rv1 cells; format: cell-based; details: Homo sapiens; siRNA-LNP 50/10/38.5/1.5, N/P 3; 22Rv1 luciferase cells; read-out: half maximal effective siRNA concentration (EC50)
Method: The LNPs contain 50/10/38.5/1.5 mol % of ionizable lipid/DSPC/chol/PEG-DMG (N/P=3) and the siRNA encodes luciferase.
An siRNA targeted against firefly luciferase purchased from Integrated DNA Technologies (IDT, Coralville, IA) was used to assess ability of LNP to knockdown firefly luciferase in a cell line.
LNP formulations containing the ionizable lipids, nor-KC2 or MC3, DSPC, cholesterol, and PEG-DMG were prepared containing siRNA encoding luciferase. The lipid nanoparticles comprise 50/10/38.5/1.5 mol % of ionizable lipid/DSPC/chol/PEG-DMG and the nitrogen-to-phosphorus ratio (N/P) was 3.

SMILES | ED50 for FVII gene silencing (FVII) [mg/kg] | EC50 [1] [µg/mL]
CCCCC/C=C\C/C=C\CCCCCCCCC1(CCCCCCCC/C=C\C/C=C\CCCCC)OCC(CCN(C)C)O1 (stereo not drawn) [KC2] | 0.1 | –
CCCCC/C=C\C/C=C\CCCCCCCCC(CCCCCCCC/C=C\C/C=C\CCCCC)OC(=O)CCCN(C)C [MC3, dilinoleyl-methyl-4-dimethylaminobutyrate] | – | 0.131 (≈ 0.204 µM)
CCCCC/C=C\C/C=C\CCCCCCCC1(CCCCCCC/C=C\C/C=C\CCCCC)OCC(CCN(C)C)O1 (stereo not drawn) [nor-KC2, 2-(2,2-Di((8Z,11Z)-heptadeca-8,11-dien-1-yl)-1,3-dioxolan-4-yl)-N,N-dimethylethan-1-amine] | – | 0.137 (≈ 0.224 µM)
